Laboratory results: patent US12528792B2, “Sulfonamide compounds and the use thereof in the treatment of cancer” (TROBIO THERAPEUTICS PTY LTD, priority 2019, dated 2026)

Experiments:
Assay type in all cases: cell-based
A2780 (ovarian) cells = assay: Anti-proliferative activity, Cell-Titre luminescent viability assay; conditions: Homo sapiens, 72 h exposure, Cell-Titre luminescent reagent
In short: (§1)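 Cells attached 24 h at 37° C., 5% CO2, then treated 72 h with compound at 0.3–100 μM or 0.1–30 μM. Viability read by Cell-Titre luminescence after 30 min reagent exposure, normalized to vehicle; EC50 from variable-slope sigmoidal nonlinear regression.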

A549 (NSCLC) cells = assay: as above; conditions: Homo sapiens, 72 h exposure, Cell-Titre luminescent reagent
In short: as §1

[1] = system: Caco-2 (colorectal) cells; assay: as above; conditions: Homo sapiens, 72 h exposure, Cell-Titre luminescent reagent
In short: as §1

[2] = system: MIA PaCa-2 (pancreatic) cells; assay: as above; conditions: Homo sapiens, 72 h exposure, Cell-Titre luminescent reagent
In short: as §1

PC3 (prostate) cells = assay: as above; conditions: 72 h exposure, Cell-Titre luminescent reagent
In short: as §1

[3] = system: SK-N-SH neuroblastoma cells; assay: Cytotoxicity assay, MTS viability; conditions: Homo sapiens, 72 hours
In short: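 SK-N-SH cells, 2×10^3/well in DMEM with 10% FBS at 37 °C, treated with 1:2 compound series from 100 μM; MTS viability read after 72 hours. Viability normalised to vehicle control; EC50 taken from dose-response curves.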

[4] = target: T1, Tpm3.1-containing actin microfilaments in SK-N-SH neuroblastoma cells (Homo sapiens, UniProt P06753); assay: Imaging and quantitation of Tpm3.1 mCherry and 488-Atto-Phalloidin actin filaments; conditions: 24 hours post-treatment, two concentrations, FIG. 2 and FIG. 3
T1 construct: expressed in transfected cells; host or cells: SK-N-SH neuroblastoma cells
T1 sequence (P06753 1-248 isoform P06753-2): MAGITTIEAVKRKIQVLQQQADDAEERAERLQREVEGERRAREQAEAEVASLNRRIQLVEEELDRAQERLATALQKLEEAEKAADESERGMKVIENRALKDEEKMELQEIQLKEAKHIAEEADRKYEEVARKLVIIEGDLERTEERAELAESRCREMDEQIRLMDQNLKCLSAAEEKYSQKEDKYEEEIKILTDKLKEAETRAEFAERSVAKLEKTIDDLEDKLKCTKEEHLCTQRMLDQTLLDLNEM
Description: The ability of compounds 24, 26 and 143 to disrupt Tpm3.1-containing actin microfilaments was investigated in SK—N—SH neuroblastoma cells that express Tpm3.1 labelled with the mCherry fluorophore. Cells were seeded at 3×10^4 cells per well in a volume of 1000 μL complete media onto a 12 well plate containing 13 mm coverslips and left to plate down for 24 hours prior to treatment. Cells were then treated with DMSO and two concentrations of the test compounds. 24 hours post-treatment, cells were fixed with 16% paraformaldehyde (PBS) and stained with 488-Atto-Phalloidin to visualise the actin filament bundles. Single plane images were obtained using the Olympus IX83 epi-fluorescence microscope. Ten fields of view were collected for both Tpm3.1 mCherry fluorophore (FIG. 2) and 488-Atto-Phalloidin (FIG. 3) with each treatment condition.
Quantitation of either Tpm3.1 mCherry filaments or 488-Atto-Phalloidin filaments was performed using ImageJ 1.52p software (ImageJ, NIH). The mean pixel intensity from a cell was measured by using a line across the entire cell cytoplasmic area above or below the nuclear region. The line was made to cross the filament bundles at a 90° angle for the measurement rather than run along a single filament. A total of n=100 cells were measured from ten fields of view. […]

[5] = system: A2780 ovarian cancer cells; assay: In vitro growth inhibition assay, Alamar Blue, single agent IC50; conditions: Homo sapiens, 72 h drug exposure, Alamar Blue, 384-well (26*: 96-well plate format), read-out: Single-agent IC50
Description: (§2) In vitro growth inhibition assays were performed as technical triplicate in two independent experiments and cell viability was assessed by Alamar Blue assay readout. Briefly, cells in logarithmic phase growth were seeded in 384-well plates in a 50 μL/well assay volume. Cells were seeded at 1,200 cells/well using a Multidrop 384 (Thermo Scientific) and allowed to adhere at 37° C. with 5% CO2, in a humidified atmosphere (LiCONIC incubator). After 24 hours incubation, test compounds, positive control (20 μM Thonzonium bromide, 100% kill) and vehicle only (0.4% DMSO) were added into wells of each assay plate using a Tecan HP D300 Digital Dispenser in technical triplicate under minimum light. Following 72 hours drug exposure, metabolic activity was detected by addition of 10% (v/v) Alamar Blue reagent to each assay well using a Multidrop Cambi (Thermo Scientific) and determined by measurement of fluorescence intensity (excitation 555 nm, emission 585 nm) using an EnSpire (Perkin Elmer) plate reader. Readings were performed at 0 hour (background) and after 6 hours alamar blue incubation at 37° C.
Each drug was tested as a 10-point concentration series with two-fold serial dilutions of each drug. The concentration series for compounds 6 and 8 was 100, 50, 25, 12.5, 6.25, 3.125, 1.563, 0.781, 0.391 and 0.195 μM and for compounds 24, 43 and 48 was 50, 25, 12.5, 6.25, 3.125, 1.563, 0.781, 0.391, 0.195 and 0.098 μM for the two independent experiments. The concentration series for vinorelbine and paclitaxel was 100, 50, 25, 12.5, 6.25, 3.125, 1.5625, 0.781, 0.391 and 0.195 nM. Thonzonium bromide (20 μM) and 0.4% DMSO were used as positive and vehicle controls, respectively. The IC50 value was calculated by derivation of the best-fit line using a sigmoidal dose response model (Activity Base Software Suite, IDES).
Activity Base software suite (IDES, version 8.3.0.175) was used for data analysis. Cell survival is expressed as a percentage of viable cells. IC50 concentrations were calculated by derivation of the best-fit line using a sigmoidal dose response model with technical triplicate data points.

[6] = system: A2780 ovarian cancer cells; assay: Drug combination screen, 6x6 dose matrix, Bliss-independence synergy; parameters: key to Max. Synergy, Vinorelbine: Bliss synergy score; 0 = no synergy, negative = antagonism; highest in matrix; key to Total Synergy, Vinorelbine: sum of Bliss synergy scores across the dose matrix; conditions: 72 h (26*: 96-well plate format); for Max. Synergy, Paclitaxel / Total Synergy, Paclitaxel: combination with paclitaxel; for Max. Synergy, Paclitaxel / Max. Synergy, Vinorelbine: Bliss score; for Total Synergy, Paclitaxel / Total Synergy, Vinorelbine: sum of Bliss scores of the matrix; for Max. Synergy, Vinorelbine / Total Synergy, Vinorelbine: combination with vinorelbine
Description: as §2
The two drugs in each combination matrix were dispensed using a Tecan HP D300 Digital Dispenser. Assays were performed in triplicate for each drug combination (test compound/vinorelbine and test compound/paclitaxel combinations). Synergistic drug interactions were calculated from the averaged cell viability data using the methodology described below.
Synergistic drug interactions were determined for each pa1rw1se drug combination by applying the Bliss-independence model that assumes independence of drug mechanisms. Prior to the analysis, percent cell viability (CV) for combination data were converted to fractional cell growth inhibition (GI) by the formula: […]
The Bliss additivism model was used to calculate a predicted combined response C to two single agents with responses A and B (using GI values), as follows:
The final score for any combination was reported as the difference between the value predicted by the additive model and the experimentally observed value, normalised to 100. Using GI values the maximum possible synergy score is 100, with 0 indicating no synergy and negative indicating possible antagonism. Scores were also reported as a “Max synergy” score, which is the highest individual synergy score for each combination matrix, and a “Total synergy” score, which was obtained by summation of each individual synergy score for the matrix.
The single agent IC50 values for the test compounds and their synergy scores in combination with vinorelbine and paclitaxel are presented in Table 4. The data is listed as IC50 mean from technical triplicates for two independent experiments. The averaged IC50 concentrations for the single agents from both runs were then used to generate the 6×6 dose matrices in the synergy experiment. Synergy scores for each drug combination were calculated by the Bliss-independence model. The maximum synergy and total synergy scores for each combination in A2780 cells are listed.

CCC(C)c1ccc(NC(=O)c2ccn(S(=O)(=O)c3ccc4[nH]ccc4c3)c2)cc1 (stereo not shown) [Compound 24, 1-((1H-indol-5-yl)sulfonyl)-N-(4-(sec-butyl)phenyl)-1H-pyrrole-3-carboxamide]
IC50 (A2780 (ovarian) cells): 2.5 µM | IC50 (A549 (NSCLC) cells): 6 µM | IC50 [1]: 8.45 µM | IC50 [2]: 8.16 µM | IC50 (PC3 (prostate) cells): 6.2 µM | IC50 [3]: 7.4 µM | Disruption of Tpm3.1-containing actin microfilaments [4]: disrupt Tpm3.1-containing actin microfilaments in a dose-dependent manner | IC50 [5]: 7.54 µM | Max. Synergy, Paclitaxel [6]: 16.56 | Total Synergy, Paclitaxel [6]: 111.86 | Max. Synergy, Vinorelbine [6]: 14.27 | Total Synergy, Vinorelbine [6]: 61.75

Cc1ccc(NC(=O)c2ccn(S(=O)(=O)c3ccc4[nH]ccc4c3)c2)cc1 [Compound 43, 1-((1H-indol-5-yl)sulfonyl)-N-(p-tolyl)-1H-pyrrole-3-carboxamide]
IC50 (A2780 (ovarian) cells): 1.9 µM | IC50 (A549 (NSCLC) cells): 18 µM | IC50 [3]: 17.4 µM | IC50 [5]: 13 µM | Max. Synergy, Paclitaxel [6]: 12.46 | Total Synergy, Paclitaxel [6]: 3.06 | Max. Synergy, Vinorelbine [6]: 10.94 | Total Synergy, Vinorelbine [6]: 73.13

O=C(Nc1ccc(F)cc1)c1ccn(S(=O)(=O)c2ccc3[nH]ccc3c2)c1 [Compound 48, 1-((1H-indol-5-yl)sulfonyl)-N-(4-fluorophenyl)-1H-pyrrole-3-carboxamide]
IC50 (A2780 (ovarian) cells): 2.5 µM | IC50 (A549 (NSCLC) cells): 3.3 µM | IC50 [3]: 7.56 µM | IC50 [5]: 14.9 µM | Max. Synergy, Paclitaxel [6]: 31.55 | Total Synergy, Paclitaxel [6]: 263.84 | Max. Synergy, Vinorelbine [6]: 17.28 | Total Synergy, Vinorelbine [6]: 68.74
